Laboratory results from patent publication US9492471B2, “Methods of treating a disease or disorder associated with Bruton'S Tyrosine Kinase” (Celgene Avilomics Research, Inc., priority 2013, dated 2016).
Where two headings read alike, the source gives them in different places.

Experiments:
Assay in all cases: HotSpot kinase profiling
Type in all cases: biochemical
CK1epsilon = molecular target: T1, CK1epsilon (Homo sapiens, UniProt P49674)
T1 construct: purchased Reaction Biology Corp
Method in brief: (§1)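 P81 filtration radiometric readout; 2 h incubation at room temperature; 0.1% phosphoric acid wash; DMSO negative control; % inhibition, mean of replicate runs.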

MYO3b = molecular target: T2, MYO3b (Homo sapiens, UniProt Q8WXR4)
T2 construct: purchased Reaction Biology Corp
T2 sequence (Q8WXR4 1-1341): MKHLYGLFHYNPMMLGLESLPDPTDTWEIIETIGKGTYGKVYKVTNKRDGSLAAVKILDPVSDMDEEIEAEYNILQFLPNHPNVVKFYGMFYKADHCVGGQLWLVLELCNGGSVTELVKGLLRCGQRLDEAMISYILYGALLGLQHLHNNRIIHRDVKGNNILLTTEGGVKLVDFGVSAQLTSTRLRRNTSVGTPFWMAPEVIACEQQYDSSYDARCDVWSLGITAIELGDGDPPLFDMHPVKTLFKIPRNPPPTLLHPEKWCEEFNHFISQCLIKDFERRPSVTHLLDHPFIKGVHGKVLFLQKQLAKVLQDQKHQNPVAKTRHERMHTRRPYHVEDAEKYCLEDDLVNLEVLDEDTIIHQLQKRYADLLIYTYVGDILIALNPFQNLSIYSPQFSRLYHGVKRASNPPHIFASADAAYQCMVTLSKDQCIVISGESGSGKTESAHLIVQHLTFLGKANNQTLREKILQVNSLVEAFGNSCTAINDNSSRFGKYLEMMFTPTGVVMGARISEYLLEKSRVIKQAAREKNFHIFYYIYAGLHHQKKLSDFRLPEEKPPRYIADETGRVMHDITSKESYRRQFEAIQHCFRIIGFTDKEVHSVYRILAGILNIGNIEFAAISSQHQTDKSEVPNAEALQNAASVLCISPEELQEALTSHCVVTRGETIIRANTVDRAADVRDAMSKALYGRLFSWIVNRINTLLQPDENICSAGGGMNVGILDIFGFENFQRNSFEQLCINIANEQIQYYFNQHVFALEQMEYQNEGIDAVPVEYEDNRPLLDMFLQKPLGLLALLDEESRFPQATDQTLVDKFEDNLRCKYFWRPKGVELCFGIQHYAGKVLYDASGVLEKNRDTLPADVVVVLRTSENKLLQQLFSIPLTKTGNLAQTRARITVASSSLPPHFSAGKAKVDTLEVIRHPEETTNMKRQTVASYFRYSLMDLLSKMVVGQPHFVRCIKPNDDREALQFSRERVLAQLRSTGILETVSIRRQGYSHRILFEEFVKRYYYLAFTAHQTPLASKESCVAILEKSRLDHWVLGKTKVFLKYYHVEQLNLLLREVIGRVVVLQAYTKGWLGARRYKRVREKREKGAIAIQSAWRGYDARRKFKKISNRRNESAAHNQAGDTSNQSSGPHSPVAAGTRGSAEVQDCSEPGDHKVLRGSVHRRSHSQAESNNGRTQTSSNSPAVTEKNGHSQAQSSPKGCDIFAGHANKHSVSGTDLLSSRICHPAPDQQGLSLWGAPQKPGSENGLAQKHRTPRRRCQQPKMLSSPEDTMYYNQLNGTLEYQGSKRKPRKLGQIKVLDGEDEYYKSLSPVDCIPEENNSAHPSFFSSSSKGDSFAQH
Method in brief: as §1

PDGFRa = molecular target: T3, PDGFRa (Homo sapiens, UniProt P16234)
T3 construct: purchased Reaction Biology Corp
Method in brief: as §1

PKAcg = molecular target: T4, PKAcg (Homo sapiens, UniProt P22612)
T4 construct: purchased Reaction Biology Corp
Method in brief: as §1

PRKX = molecular target: T5, PRKX (Homo sapiens, UniProt P51817)
T5 construct: purchased Reaction Biology Corp
T5 sequence (P51817 1-358): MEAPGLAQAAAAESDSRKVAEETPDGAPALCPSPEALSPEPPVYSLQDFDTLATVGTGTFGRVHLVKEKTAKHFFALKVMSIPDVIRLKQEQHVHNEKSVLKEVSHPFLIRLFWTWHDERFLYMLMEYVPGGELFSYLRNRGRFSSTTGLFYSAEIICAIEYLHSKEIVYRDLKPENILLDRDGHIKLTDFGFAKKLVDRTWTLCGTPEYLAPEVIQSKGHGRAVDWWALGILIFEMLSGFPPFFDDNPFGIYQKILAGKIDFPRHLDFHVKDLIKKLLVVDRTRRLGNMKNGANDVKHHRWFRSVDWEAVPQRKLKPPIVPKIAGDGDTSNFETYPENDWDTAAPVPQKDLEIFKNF
Method in brief: as §1

ROCK2 = molecular target: T6, ROCK2 (Homo sapiens, UniProt O75116)
T6 construct: purchased Reaction Biology Corp
Method in brief: as §1

[1] = read-out: % Enzyme Activity (relative to DMSO controls) Run 1
[2] = read-out: % Enzyme Activity (relative to DMSO controls) Run 2

T3 sequence (P16234 24-1089): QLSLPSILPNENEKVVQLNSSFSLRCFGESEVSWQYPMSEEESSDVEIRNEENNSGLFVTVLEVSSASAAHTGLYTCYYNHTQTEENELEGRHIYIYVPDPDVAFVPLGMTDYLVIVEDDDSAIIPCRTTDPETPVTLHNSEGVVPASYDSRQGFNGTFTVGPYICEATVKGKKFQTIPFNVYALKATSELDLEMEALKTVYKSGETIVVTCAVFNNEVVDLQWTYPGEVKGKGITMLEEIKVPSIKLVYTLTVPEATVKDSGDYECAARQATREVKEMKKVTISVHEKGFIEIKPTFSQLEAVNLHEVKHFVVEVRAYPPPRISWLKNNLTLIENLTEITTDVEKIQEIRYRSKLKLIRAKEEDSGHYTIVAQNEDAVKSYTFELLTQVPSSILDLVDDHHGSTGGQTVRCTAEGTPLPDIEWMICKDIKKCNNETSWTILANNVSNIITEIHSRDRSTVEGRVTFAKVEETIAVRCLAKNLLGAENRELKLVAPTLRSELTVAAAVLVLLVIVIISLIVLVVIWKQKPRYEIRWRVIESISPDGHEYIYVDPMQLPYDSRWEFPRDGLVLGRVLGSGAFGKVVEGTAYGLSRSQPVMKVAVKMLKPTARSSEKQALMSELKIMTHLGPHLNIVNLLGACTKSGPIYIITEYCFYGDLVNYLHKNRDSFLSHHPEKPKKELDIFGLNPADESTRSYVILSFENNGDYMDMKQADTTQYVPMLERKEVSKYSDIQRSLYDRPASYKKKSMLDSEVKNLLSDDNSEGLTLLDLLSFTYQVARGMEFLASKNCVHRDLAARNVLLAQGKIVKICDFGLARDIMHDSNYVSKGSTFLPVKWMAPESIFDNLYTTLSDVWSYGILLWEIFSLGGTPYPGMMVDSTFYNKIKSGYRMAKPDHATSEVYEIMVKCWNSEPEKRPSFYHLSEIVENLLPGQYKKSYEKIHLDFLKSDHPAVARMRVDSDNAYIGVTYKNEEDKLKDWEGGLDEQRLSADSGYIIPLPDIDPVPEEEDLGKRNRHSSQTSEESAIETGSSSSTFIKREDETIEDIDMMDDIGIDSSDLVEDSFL
T4 sequence (P22612 whole entry): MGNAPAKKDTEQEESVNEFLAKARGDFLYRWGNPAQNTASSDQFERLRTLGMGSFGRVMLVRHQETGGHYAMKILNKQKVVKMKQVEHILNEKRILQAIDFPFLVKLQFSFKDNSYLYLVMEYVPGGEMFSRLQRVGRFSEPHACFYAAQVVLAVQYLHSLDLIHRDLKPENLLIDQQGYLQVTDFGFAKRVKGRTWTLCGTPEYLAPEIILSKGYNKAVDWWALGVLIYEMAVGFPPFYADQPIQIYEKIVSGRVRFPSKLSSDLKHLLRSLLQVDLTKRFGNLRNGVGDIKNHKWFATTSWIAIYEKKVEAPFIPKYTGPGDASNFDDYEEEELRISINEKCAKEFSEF
T6 sequence (O75116 whole entry): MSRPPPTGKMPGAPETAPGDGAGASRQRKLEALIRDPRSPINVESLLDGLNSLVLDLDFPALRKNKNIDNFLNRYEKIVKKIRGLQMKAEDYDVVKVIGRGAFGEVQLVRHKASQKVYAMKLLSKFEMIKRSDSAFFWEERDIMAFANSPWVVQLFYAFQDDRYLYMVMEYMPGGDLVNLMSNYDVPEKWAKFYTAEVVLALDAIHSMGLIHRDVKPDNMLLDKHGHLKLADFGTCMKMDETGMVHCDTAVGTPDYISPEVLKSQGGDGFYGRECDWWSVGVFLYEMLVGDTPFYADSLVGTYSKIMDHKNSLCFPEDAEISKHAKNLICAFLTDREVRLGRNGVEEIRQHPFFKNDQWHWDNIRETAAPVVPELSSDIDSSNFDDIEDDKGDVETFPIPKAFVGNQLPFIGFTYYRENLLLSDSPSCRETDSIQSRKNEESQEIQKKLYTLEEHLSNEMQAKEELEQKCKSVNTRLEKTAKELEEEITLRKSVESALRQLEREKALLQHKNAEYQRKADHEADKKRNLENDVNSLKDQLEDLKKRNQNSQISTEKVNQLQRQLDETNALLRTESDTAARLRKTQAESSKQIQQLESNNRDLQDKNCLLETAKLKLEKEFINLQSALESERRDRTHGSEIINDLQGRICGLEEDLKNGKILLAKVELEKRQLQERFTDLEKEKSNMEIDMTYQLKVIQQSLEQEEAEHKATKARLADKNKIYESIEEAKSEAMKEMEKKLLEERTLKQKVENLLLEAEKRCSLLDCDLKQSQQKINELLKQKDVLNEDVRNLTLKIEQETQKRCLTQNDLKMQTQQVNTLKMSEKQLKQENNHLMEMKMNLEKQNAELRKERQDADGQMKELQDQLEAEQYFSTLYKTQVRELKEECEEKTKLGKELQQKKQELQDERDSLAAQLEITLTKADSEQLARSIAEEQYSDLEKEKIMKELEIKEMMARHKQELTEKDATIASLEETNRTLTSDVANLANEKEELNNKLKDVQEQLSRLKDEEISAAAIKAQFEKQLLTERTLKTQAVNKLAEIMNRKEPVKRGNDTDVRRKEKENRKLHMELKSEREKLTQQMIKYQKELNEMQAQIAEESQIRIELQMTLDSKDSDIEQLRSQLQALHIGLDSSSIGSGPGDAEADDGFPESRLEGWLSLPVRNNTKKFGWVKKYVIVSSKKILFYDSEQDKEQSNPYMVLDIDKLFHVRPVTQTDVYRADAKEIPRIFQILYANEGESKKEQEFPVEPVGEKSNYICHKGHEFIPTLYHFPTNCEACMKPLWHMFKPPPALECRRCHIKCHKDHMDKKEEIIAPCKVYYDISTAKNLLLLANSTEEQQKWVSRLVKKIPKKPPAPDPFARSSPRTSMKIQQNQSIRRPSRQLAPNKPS
T1 sequence (P49674 whole entry): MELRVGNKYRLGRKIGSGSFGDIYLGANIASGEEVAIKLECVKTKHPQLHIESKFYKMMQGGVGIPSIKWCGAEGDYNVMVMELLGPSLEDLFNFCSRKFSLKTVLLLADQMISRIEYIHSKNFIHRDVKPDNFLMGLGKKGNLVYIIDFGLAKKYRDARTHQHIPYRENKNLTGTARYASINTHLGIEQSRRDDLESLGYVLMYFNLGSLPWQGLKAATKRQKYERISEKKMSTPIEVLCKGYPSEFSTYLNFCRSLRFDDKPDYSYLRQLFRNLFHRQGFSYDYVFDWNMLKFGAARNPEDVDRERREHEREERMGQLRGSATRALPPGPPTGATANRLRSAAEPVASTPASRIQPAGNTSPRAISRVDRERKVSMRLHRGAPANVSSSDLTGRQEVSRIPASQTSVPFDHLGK

C=CC(=O)Nc1cccc(Nc2nc(Nc3ccc(OCCOC)c(F)c3)ncc2F)c1 [Compound 2]
inhibition at 3 µM (CK1epsilon): -1.96%
remaining activity at 3 µM (CK1epsilon; [1]): 102%
remaining activity at 3 µM (CK1epsilon; [2]): 102%
inhibition at 3 µM (MYO3b): -2.59%
remaining activity at 3 µM (MYO3b; [1]): 104%
remaining activity at 3 µM (MYO3b; [2]): 102%
inhibition at 3 µM (PDGFRa): 36.6%
remaining activity at 3 µM (PDGFRa; [1]): 63.9%
remaining activity at 3 µM (PDGFRa; [2]): 62.8%
inhibition at 3 µM (PKAcg): -27.8%
remaining activity at 3 µM (PKAcg; [1]): 128%
remaining activity at 3 µM (PKAcg; [2]): 128%
inhibition at 3 µM (PRKX): 1.8%
remaining activity at 3 µM (PRKX; [1]): 97.9%
remaining activity at 3 µM (PRKX; [2]): 98.5%
inhibition at 3 µM (ROCK2): -1.88%
remaining activity at 3 µM (ROCK2; [1]): 102%
remaining activity at 3 µM (ROCK2; [2]): 101%
